Laboratory results taken from the NIST ThermoML archive (doi:10.1016/j.tca.2008.06.010).
Values joined by “and” are separate entries in the source; they are usually repeats but may differ in a detail not shown here. Equal values may be shown once.

What was measured:
[1] = 293 K; 101.33 kPa; Crystal; X-ray diffraction
[2] = molar heat capacity at constant pressure; conditions: 101.33 kPa, Crystal

[Nb+5].[Nb+5].[O-2].[O-2].[O-2].[O-2].[O-2].[O-2].[O-2].[Sr+2].[Sr+2] [niobium strontium oxide (Nb2Sr2O7)]
Conditions	mass density [kg/m3]
[1]	5206

molar heat capacity at constant pressure, [2]
Conditions	Relaxation time	Small sample (50 mg) DSC
2 K	0.006 J/K/mol	–
2.1 K	0.005 J/K/mol	–
2.2 K	0.006 J/K/mol	–
2.4 K	0.007 J/K/mol	–
2.5 K	0.008 J/K/mol	–
2.7 K	0.009 J/K/mol	–
2.9 K	0.01 J/K/mol	–
3.1 K	0.012 J/K/mol	–
3.2 K	0.015 J/K/mol	–
3.5 K	0.017 J/K/mol	–
3.7 K	0.02 J/K/mol	–
3.9 K	0.024 J/K/mol	–
4.2 K	0.03 J/K/mol	–
4.4 K	0.035 J/K/mol	–
4.7 K	0.043 J/K/mol	–
5 K	0.053 J/K/mol	–
5.4 K	0.064 J/K/mol	–
5.7 K	0.079 J/K/mol	–
6.1 K	0.097 J/K/mol	–
6.5 K	0.12 J/K/mol	–
6.9 K	0.15 J/K/mol	–
7.4 K	0.19 J/K/mol	–
7.9 K	0.23 J/K/mol	–
8.4 K	0.28 J/K/mol	–
8.9 K	0.35 J/K/mol	–
9.5 K	0.43 J/K/mol	–
10.1 K	0.53 J/K/mol	–
10.8 K	0.65 J/K/mol	–
11.5 K	0.8 J/K/mol	–
12.2 K	0.99 J/K/mol	–
13 K	1.21 J/K/mol	–
13.9 K	1.48 J/K/mol	–
14.8 K	1.82 J/K/mol	–
15.7 K	2.2 J/K/mol	–
16.7 K	2.69 J/K/mol	–
17.8 K	3.28 J/K/mol	–
19 K	3.97 J/K/mol	–
20.2 K	4.78 J/K/mol	–
21.5 K	5.72 J/K/mol	–
22.9 K	6.83 J/K/mol	–
24.3 K	8.09 J/K/mol	–
25.9 K	9.56 J/K/mol	–
27.6 K	11.22 J/K/mol	–
29.3 K	13.09 J/K/mol	–
31.2 K	15.16 J/K/mol	–
33.3 K	17.47 J/K/mol	–
35.4 K	20.05 J/K/mol	–
37.7 K	22.84 J/K/mol	–
40.2 K	25.86 J/K/mol	–
42.7 K	29.26 J/K/mol	–
45.5 K	32.91 J/K/mol	–
48.4 K	36.66 J/K/mol	–
51.6 K	40.57 J/K/mol	–
54.9 K	44.95 J/K/mol	–
58.4 K	49.55 J/K/mol	–
62.2 K	54.39 J/K/mol	–
66.2 K	59.43 J/K/mol	–
70.4 K	64.72 J/K/mol	–
75 K	70.3 J/K/mol	–
79.8 K	76.11 J/K/mol	–
84.9 K	82.05 J/K/mol	–
90.4 K	88.37 J/K/mol	–
96.2 K	95.08 J/K/mol	–
102.4 K	101.57 J/K/mol	–
115.9 K	115.3 J/K/mol	–
123.4 K	122.51 J/K/mol	–
131.3 K	129.76 J/K/mol	–
139.7 K	137.01 J/K/mol	–
148.6 K	144.41 J/K/mol	–
158.2 K	152.04 J/K/mol	–
168.3 K	158.82 J/K/mol	–
179 K	166.7 J/K/mol	–
190.5 K	173.8 J/K/mol	–
201.5 K	179.2 J/K/mol	–
203 K	180.19 J/K/mol	–
203.6 K	180.24 J/K/mol	–
205.7 K	181.22 J/K/mol	–
207.7 K	181.67 J/K/mol	–
209.7 K	183.21 J/K/mol	–
211.7 K	184.53 J/K/mol	–
213.8 K	185.64 J/K/mol	–
215.8 K	187.13 J/K/mol	–
217.8 K	188.51 J/K/mol	–
219.8 K	190.01 J/K/mol	–
221.8 K	191.02 J/K/mol	–
223.8 K	191.53 J/K/mol	–
225.9 K	192.06 J/K/mol	–
227.9 K	193.45 J/K/mol	–
229.9 K	193.04 J/K/mol	–
231.9 K	193.63 J/K/mol	–
233.9 K	194.26 J/K/mol	–
235.9 K	196.53 J/K/mol	–
238 K	196.42 J/K/mol	–
240 K	197.53 J/K/mol	–
242 K	197.69 J/K/mol	–
244 K	197.75 J/K/mol	–
246.1 K	198.29 J/K/mol	–
248.1 K	200 J/K/mol	–
250.1 K	200.61 J/K/mol	–
252.1 K	201.6 J/K/mol	–
254.1 K	202.35 J/K/mol	–
256.1 K	203.13 J/K/mol	–
258.1 K	203.04 J/K/mol	201.78 J/K/mol and 201.57 J/K/mol
260.2 K	205.33 J/K/mol	–
262.2 K	206.4 J/K/mol	–
264.2 K	207.59 J/K/mol	–
266.2 K	208.79 J/K/mol	–
268.2 K	209.43 J/K/mol	–
268.3 K	–	206.1 J/K/mol and 204.8 J/K/mol
270.2 K	210.44 J/K/mol	–
272.2 K	211.82 J/K/mol	–
274.3 K	212.04 J/K/mol	–
276.3 K	212.05 J/K/mol	–
278.3 K	212.41 J/K/mol	–
278.5 K	–	208.78 J/K/mol and 208.32 J/K/mol
280.3 K	212.81 J/K/mol	–
282.3 K	212.94 J/K/mol	–
284.3 K	213.33 J/K/mol	–
286.3 K	213.1 J/K/mol	–
288.3 K	213.9 J/K/mol	–
288.7 K	–	211.87 J/K/mol and 212.56 J/K/mol
290.4 K	214.19 J/K/mol	–
292.4 K	214.81 J/K/mol	–
294.4 K	215.93 J/K/mol	–
296.4 K	216.6 J/K/mol	–
298.4 K	219.18 J/K/mol	–
298.9 K	–	216.24 J/K/mol [middle of 10 runs]
300.4 K	218.65 J/K/mol	–
309.1 K	–	220.12 J/K/mol [middle of 11 runs]
319.4 K	–	223.23 J/K/mol [middle of 9 runs]
329.6 K	–	225.99 J/K/mol [middle of 11 runs]
339.8 K	–	228.99 J/K/mol [middle of 10 runs]
350 K	–	230.93 J/K/mol [middle of 11 runs]
